Measured values published in ChEMBL document CHEMBL1201862, “PubChem BioAssay data set” (2004).
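Five compound concentrations were applied to cells in 96-well plates for 48 hours; endpoints were derived by simple linear interpolation of the resulting dose-response curve. GI50 is the concentration that inhibits growth by half.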 Calls of active or inactive are those of the source. Rule as the data show it: active = GI50 up to about 1.1 µM and inactive = higher.

Tests used:
Experiment in all cases: NCI tumour cell line growth inhibition, 48 h
[1] = system: A549
[2] = system: ACHN
[3] = system: COLO 205
[4] = system: IGROV-1
[5] = system: MOLT-4
[6] = system: NCI-H23
[7] = system: OVCAR-5
[8] = system: OVCAR-8
[9] = system: RXF 393
[10] = system: SF-268
[11] = system: SK-MEL-5
[12] = system: SN12C
[13] = system: TK-10
[14] = system: U-251
[15] = system: LOX IMVI
[16] = system: NCI-H226
[17] = system: HOP-62

Measured: GI50

O=C(N/C(=C\c1ccc(Oc2ccc(Cl)c(Cl)c2)cc1)c1nc2ccccc2[nH]1)c1ccccc1
inactive: [1] 17.9 µM | [2] 19.7 µM | [3] 21.9 µM | [4] > 10 µM | [5] 18.7 µM | [6] 13.3 µM | [7] 22.4 µM | [8] 14.6 µM | [9] 13.9 µM | [10] 18.1 µM | [11] 16.1 µM | [12] 18.4 µM | [13] 26.1 µM | [14] 14.1 µM

Cc1csc(CCC(N)C(=O)O)n1 (stereo not given)
inactive: [1] > 100 µM | [2] > 100 µM | [3] > 100 µM | [4] > 100 µM | [15] > 100 µM | [5] > 100 µM | [16] > 100 µM | [6] > 100 µM | [8] > 100 µM | [9] > 100 µM | [11] > 100 µM | [12] > 100 µM | [13] > 100 µM | [14] > 100 µM

O=C1CCC(=O)c2c1c(O)c1ccncc1c2O
inactive: [1] 20.4 µM | [2] 15.3 µM | [3] 7.94 µM | [17] 30.9 µM | [4] 15 µM | [15] 13.8 µM | [5] 18.2 µM | [16] 20.6 µM | [6] 16.4 µM | [7] 23 µM | [8] 10 µM | [9] 21 µM | [11] 11.4 µM | [12] 17.5 µM | [13] 18.4 µM | [14] 23.9 µM

CCN(CC)CCn1c2ccccc2c(=O)c2c(OC)ccc(OC)c21
inactive: [1] 63.7 µM | [2] 47.9 µM | [3] 38.7 µM | [17] > 100 µM | [4] > 10 µM | [15] 36.5 µM | [5] 36.8 µM | [16] 60.3 µM | [6] > 100 µM | [7] 99.5 µM | [8] 48.4 µM | [9] 32.4 µM | [10] 55.8 µM | [12] 52.4 µM | [14] 65.6 µM

COc1ccc(/C=C/C(=O)c2sc(N)nc2C)cc1
inactive: [1] > 100 µM | [3] > 100 µM | [17] > 100 µM | [4] > 100 µM | [15] > 100 µM | [5] > 100 µM | [6] > 100 µM | [7] > 100 µM | [8] > 100 µM | [9] > 100 µM | [10] > 100 µM | [11] > 100 µM | [12] > 100 µM | [13] > 100 µM | [14] > 100 µM

O=C(/C=C/c1ccc(Cl)c(Cl)c1)c1cccc2ccccc12
inactive: [1] 15.7 µM | [2] 16.4 µM | [3] 12.3 µM | [17] 17 µM | [4] 11.7 µM | [16] 14.4 µM | [6] 8.17 µM | [7] 13.8 µM | [8] 2.16 µM | [10] 4.52 µM | [11] 19.1 µM | [12] 16.9 µM | [13] 16.8 µM | [14] 2.74 µM

NC(=O)N/N=C(\CC1OC(=O)c2ccccc21)c1ccco1 (stereo not given)
inactive: [1] > 100 µM | [2] > 100 µM | [3] > 100 µM | [4] > 100 µM | [15] > 100 µM | [5] > 100 µM | [16] > 100 µM | [6] > 100 µM | [7] > 100 µM | [9] > 100 µM | [10] > 100 µM | [11] > 100 µM | [13] > 100 µM

CC1COS(=O)O1 (stereo not given)
inactive: [1] > 100 µM | [2] > 100 µM | [3] > 100 µM | [17] > 100 µM | [4] > 100 µM | [15] > 100 µM | [5] > 100 µM | [16] > 100 µM | [6] > 100 µM | [7] > 100 µM | [8] > 100 µM | [10] > 100 µM | [11] > 100 µM | [12] > 100 µM | [13] > 100 µM

COC(=O)C1=NC(=S)NC(c2ccccc2)C1c1nc2ccccc2o1 (stereo not given)
inactive: [1] > 50 µM | [2] > 50 µM | [3] > 50 µM | [17] > 50 µM | [4] > 50 µM | [15] > 50 µM | [5] > 50 µM | [16] > 50 µM | [6] > 50 µM | [7] > 50 µM | [8] > 50 µM | [9] 20.1 µM | [10] > 50 µM | [12] > 50 µM | [13] > 50 µM | [14] > 50 µM

COc1ccc([C@H]2CC(=O)NCCCCN2)cc1
inactive: [1] > 100 µM | [2] > 100 µM | [3] > 100 µM | [17] > 100 µM | [4] > 100 µM | [5] > 100 µM | [16] > 100 µM | [6] > 100 µM | [7] > 100 µM | [8] > 100 µM | [9] > 100 µM | [10] > 100 µM | [11] > 100 µM | [12] > 100 µM | [13] > 100 µM | [14] > 100 µM

Cc1ccc(NC(=O)CCC(CC(=O)C(C)(C)C)=NNC(=O)C(=O)NN)cc1C
inactive: [1] > 100 µM | [2] > 100 µM | [3] > 100 µM | [17] > 100 µM | [4] > 100 µM | [15] > 100 µM | [5] > 100 µM | [16] > 100 µM | [6] > 100 µM | [7] > 100 µM | [8] > 100 µM | [9] > 100 µM | [10] > 100 µM | [11] > 100 µM | [12] > 100 µM | [13] > 100 µM

COc1nc(NC2OC(COC(C)=O)C(OC(C)=O)C(OC(C)=O)C2OC(C)=O)c(-c2csc(N)n2)c(=O)n1C (stereo not given)
inactive: [1] 55 µM | [2] 38.4 µM | [3] > 100 µM | [17] 29.6 µM | [4] > 100 µM | [15] > 100 µM | [5] > 100 µM | [16] 37.9 µM | [6] 66.1 µM | [7] > 100 µM | [8] 31.8 µM | [10] 25.9 µM | [11] 43.3 µM | [12] > 100 µM | [13] > 100 µM | [14] 61.5 µM

CC(C)[C@H]1CO[C@@H]2O[C@H](C)CC(=O)N21
inactive: [1] > 100 µM | [2] > 100 µM | [3] > 100 µM | [17] > 100 µM | [4] > 100 µM | [5] > 100 µM | [16] > 100 µM | [6] > 100 µM | [8] > 100 µM | [9] > 100 µM | [10] > 100 µM | [11] > 100 µM | [12] > 100 µM | [13] > 100 µM | [14] > 100 µM
